Results on twelve molecules are retold here after US8759342B2, “Benzo[1,4]oxazin-3-one, benzo[1,4]thiazin-3-one and quinolin-2-one urotensin II receptor antagonists” (Janssen Pharmaceutica NV, priority 2006, dated 2014).

Like-named read-outs stand apart in the source and are kept apart here.

Data set [1] concerns isolated arterial rings. The conditions noted are these: humans; read-out: EC50, contraction of isolated arterial rings; cited from earlier work.
The subject of data set [2] is isolated arterial rings. The conditions noted are these: rats; read-out: EC50, contraction of isolated arterial rings; cited from earlier work.
Data set [3] concerns streptozotocin-induced diabetic rats. The conditions noted are these: long-term treatment; cited from earlier work.
In data set [4] the target is T1, rat GPR14 (U-II receptor) (Rattus norvegicus, UniProt P49684).
T1 construct: expressed in transfected cells
T1 sequence (P49684 1-386): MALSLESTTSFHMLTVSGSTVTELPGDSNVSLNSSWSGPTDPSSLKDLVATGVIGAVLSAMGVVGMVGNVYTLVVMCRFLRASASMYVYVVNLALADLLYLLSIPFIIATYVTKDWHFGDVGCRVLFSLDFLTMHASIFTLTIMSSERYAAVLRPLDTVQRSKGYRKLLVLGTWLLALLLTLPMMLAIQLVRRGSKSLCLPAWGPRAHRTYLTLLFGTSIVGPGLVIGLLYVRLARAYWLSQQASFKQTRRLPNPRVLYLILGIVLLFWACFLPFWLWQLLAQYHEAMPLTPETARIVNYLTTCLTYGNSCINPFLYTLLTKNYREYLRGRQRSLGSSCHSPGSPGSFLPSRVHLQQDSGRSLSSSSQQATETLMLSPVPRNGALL
Conditions: agonist; calcium mobilization; read-out: FLIPR EC50; cited from earlier work.

Data set [5] deals with T2, (Rattus norvegicus, UniProt P49684).
T2 sequence (P49684 1-386): T1 sequence (P49684 1-386)
The conditions noted are these: read-out: rU-II Ki; cited from earlier work.

Data set [6] addresses T1, rat GPR14 (U-II receptor). Description: Calcium flux assay (FLIPR). The class given is cell-based. Conditions: Inhibition of acetyl-cyclic[Cys-Phe-Trp-Lys-(2-Nal)-Cys]-NH2 (1 nM) induced Ca2+ mobilization (FLIPR) in CHO cells transfected with rat UII receptor; 5 min incubation. The method in brief:
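Stable CHO cell line expressing cloned rat U-II receptor, seeded 24 h before assay, loaded with FLIPR calcium dye in HBSS/20 mM HEPES/0.1% BSA/2.5 mM probenecid, pH 7.4, for 1 hr at 37° C. Calcium mobilization read at room temperature (23° C.).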
For orientation: Calcium assays in cells follow changes in intracellular calcium, usually with a dye or a luminescent sensor.

The target in another data set is T3, Human UII receptors (Homo sapiens, UniProt Q9UKP6).
T3 construct: host or cells: Human Skeletal Muscle Myoblasts (HSMM), intact adherent cells
T3 sequence (Q9UKP6 1-389): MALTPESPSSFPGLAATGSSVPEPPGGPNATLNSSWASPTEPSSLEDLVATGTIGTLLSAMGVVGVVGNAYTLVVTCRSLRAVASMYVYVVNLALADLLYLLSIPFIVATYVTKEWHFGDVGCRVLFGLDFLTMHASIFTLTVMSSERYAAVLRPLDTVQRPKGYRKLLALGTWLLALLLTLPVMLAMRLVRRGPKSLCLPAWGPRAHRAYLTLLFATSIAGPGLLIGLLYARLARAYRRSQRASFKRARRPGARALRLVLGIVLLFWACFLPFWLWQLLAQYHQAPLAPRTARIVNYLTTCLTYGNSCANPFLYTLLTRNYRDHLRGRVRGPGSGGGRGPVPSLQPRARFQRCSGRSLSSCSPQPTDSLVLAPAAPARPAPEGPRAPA
In words: Human radioligand binding assay, (125I)-U-II on HSMM. The conditions noted are these: 0.150 nM (125I)-U-II, intact Human Skeletal Muscle Myoblasts, 3 hrs, 25° C.; read-out: Ki. Here is the method: Human Skeletal Muscle Myoblasts (HSMM) were obtained from Cambrex, and were cultured according to manufacturer's instruction. Cell viability was examined by trypan blue exclusion. Cells at less than 4 passages were used in all studies. […] The binding medium used was Dulbecco's modified Eagle's medium (DMEM) containing 2 mg/ml BSA and 25 mM HEPES (pH 7.4). […] The cells were washed 4× with the binding medium and solubilized in 1% SDS and 0.5 N NaOH. Radioactivity was quantified by gamma counting.

As a reminder, the EC50 is the concentration giving half of the maximal effect. On to “AGTAD-cyclo(CFWKYC)-V [Goby U-II, Urotensin-II isolated from the urophysis of the goby fish as a 12-mer]”, for which the 50% effective concentration (EC50) with isolated arterial rings [1] and with isolated arterial rings [2] was below 1 nM each time.
As a reminder, the melting point is the temperature, or range, at which the solid turns liquid. For the molecule `CN(C)C(=O)C1(c2ccc(Cl)cc2)CCN(CCN2C(=O)CCc3ccccc32)CC1`, the melting point fell in the range of 243 to 245 °C.
As to `Cc1cc(NC(=O)NCCN2CCC(O)(Cc3ccccc3)CC2)c2ccccc2n1` [palosuran], in data set [3], the “development of proteinuria and renal damage” value was “delayed the development of proteinuria and renal damage”; the “glycemia, glycosylated hemoglobin, and serum lipids” value is “slowed the increase in glycemia, glycosylated hemoglobin, and serum lipids”; the insulin result was “increased insulin”; the renal blood flow result is given as “increased renal blood flow”. Further, the survival entry in data set [3] is reported as “improved survival”.
One may read the Ki as the equilibrium dissociation constant of an inhibitor or competing ligand from its target. Take “acetyl-cyclic[Cys-Phe-Trp-Lys-(2-Nal)-Cys]-NH2 [(Ac)-CFWK(2-NaI)C—NH2, agonist cyclic peptide used to induce Ca2+ mobilization in the FLIPR assay]”: the EC50 in data set [4] is 0.54 ± 0.2 nM. The Ki in data set [5] was 0.12 ± 0.05 nM.
What is called IC50 is the concentration needed to halve the response being measured. `O=C(NCC1CCN(C(=O)NCc2ccccc2)CC1)c1cc(Cl)ccc1C1CCN(CCN2C(=O)COc3ccccc32)CC1` [Cpd 67, 4-[(5-chloro-2-{1-[2-(3-oxo-2,3-dihydro-benzo[1,4]oxazin-4-yl)-ethyl]-piperidin-4-yl}-benzoylamino)-methyl]-piperidine-1-carboxylic acid benzylamide]: the IC50 in data set [6] came to 210 nM. Moreover, the inhibition constant (Ki) at Human UII receptors was found to be 30 nM.
For `O=C(NCC1CCN(C(=O)OCc2ccccc2)CC1)c1cc(Cl)ccc1C1CCN(CCN2C(=O)COc3ccccc32)CC1` [Cpd 63, 4-[(5-chloro-2-{1-[2-(3-oxo-2,3-dihydro-benzo[1,4]oxazin-4-yl)-ethyl]-piperidin-4-yl}-benzoylamino)-methyl]-piperidine-1-carboxylic acid benzyl ester], the IC50 in data set [6] was determined as 400 nM. For the same molecule, on Human UII receptors, the Ki stood at 54 nM.
Take `CC(C)(C)OC(=O)NCCCCNC(=O)c1cc(Cl)ccc1C1CCN(CCN2C(=O)COc3ccccc32)CC1` [Cpd 60, [4-(5-chloro-2-{1-[2-(3-oxo-2,3-dihydro-benzo[1,4]oxazin-4-yl)-ethyl]-piperidin-4-yl}-benzoylamino)-butyl]-carbamic acid tert-butyl ester]: the 50% inhibitory concentration (IC50) in data set [6] worked out at 500 nM. In addition, the Ki at Human UII receptors was determined as 150 nM.
On to `CC(C)(C)OC(=O)N1CCC(CCNC(=O)c2cc(Cl)ccc2C2CCN(CCN3C(=O)COc4ccccc43)CC2)CC1` [Cpd 68, 4-[2-(5-chloro-2-{1-[2-(3-oxo-2,3-dihydro-benzo[1,4]oxazin-4-yl)-ethyl]-piperidin-4-yl}-benzoylamino)-ethyl]-piperidine-1-carboxylic acid tert-butyl ester], for which the 50% inhibitory concentration (IC50) in data set [6] stood at 100 nM. Besides, the Ki on Human UII receptors stood at 47 nM.
In the same order, the values of `CC(C)(C)OC(=O)NCCCCCCNC(=O)c1cc(Cl)ccc1C1CCN(CCN2C(=O)COc3ccccc32)CC1` [Cpd 74, [6-(5-chloro-2-{1-[2-(3-oxo-2,3-dihydro-benzo[1,4]oxazin-4-yl)-ethyl]-piperidin-4-yl}-benzoylamino)-hexyl]-carbamic acid tert-butyl ester] are 45 nM and 100 nM.
In the same order, the values of `CC(C)(C)OC(=O)N1CCN(CCNC(=O)c2cc(Cl)ccc2C2CCN(CCN3C(=O)COc4ccccc43)CC2)CC1` [Cpd 66, 4-[2-(5-chloro-2-{1-[2-(3-oxo-2,3-dihydro-benzo[1,4]oxazin-4-yl)-ethyl]-piperidin-4-yl}-benzoylamino)-ethyl]-piperazine-1-carboxylic acid tert-butyl ester] are 15 nM and 57 nM.
On the same counts, the results for `O=C(NCCc1ccc2ccccc2c1)c1cc(Cl)ccc1C1CCN(CCN2C(=O)COc3ccccc32)CC1` [Cpd 61, 5-chloro-N-(2-naphthalen-2-yl-ethyl)-2-{1-[2-(3-oxo-2,3-dihydro-benzo[1,4]oxazin-4-yl)-ethyl]-piperidin-4-yl}-benzamide] are 2000 nM and 260 nM.
On to `CC(C)(C)OC(=O)N1CCC(CNC(=O)c2cc(Cl)ccc2C2CCN(CCN3C(=O)COc4ccccc43)CC2)CC1` [Cpd 58, 4-[(5-chloro-2-{1-[2-(3-oxo-2,3-dihydro-benzo[1,4]oxazin-4-yl)-ethyl]-piperidin-4-yl}-benzoylamino)-methyl]-piperidine-1-carboxylic acid tert-butyl ester], for which the 50% inhibitory concentration (IC50) in data set [6] was determined as 600 nM. Moreover, the Ki on Human UII receptors turned out to be 140 nM.
